ChEMBL document CHEMBL1201862, “PubChem BioAssay data set” (2004)
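Step 1: Grow cells in 96-well plates. Step 2: Expose to compound for 48 hours at 5 concentrations. Step 3: Interpolate endpoints linearly; if unreached, use highest concentration. Abbreviation: GI50, concentration required for 50% inhibition of growth.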 Activity calls are given as the source filed them. Rule as the data show it: active = GI50 up to about 1.1 µM and inactive = higher.

What was measured:
Test in all cases: growth of human tumour cells (NCI), 48 h
ACHN = tested on: ACHN
DU-145 = tested on: DU-145
HOP-92 = tested on: HOP-92
HT-29 = tested on: HT-29
KM12 = tested on: KM12
MDA-N = tested on: MDA-N
Malme-3M = tested on: Malme-3M
NCI-H226 = tested on: NCI-H226
NCI-H23 = tested on: NCI-H23
OVCAR-8 = tested on: OVCAR-8
RXF 393 = tested on: RXF 393
SF-295 = tested on: SF-295
SF-539 = tested on: SF-539
SK-OV-3 = tested on: SK-OV-3
TK-10 = tested on: TK-10
U-251 = tested on: U-251
UACC-62 = tested on: UACC-62
K562 = tested on: K562
SK-MEL-28 = tested on: SK-MEL-28
SW-620 = tested on: SW-620

Measured: GI50

C=C(Cl)CN1c2ccccc2C=Cc2ccccc21
inactive: ACHN 7.05 µM | DU-145 29.7 µM | HOP-92 22.3 µM | HT-29 9.44 µM | KM12 11 µM | MDA-N 15 µM | Malme-3M 27.5 µM | NCI-H226 27.5 µM | NCI-H23 > 100 µM | OVCAR-8 14.8 µM | RXF 393 13 µM | SF-295 10.4 µM | SF-539 18 µM | SK-OV-3 15.9 µM | TK-10 48.3 µM | U-251 10.1 µM | UACC-62 10.1 µM

N=C(N)c1ccc(C(NC(=O)CNS(=O)(=O)c2ccc3ccccc3c2)P(=O)(Oc2ccccc2)Oc2ccccc2)cc1 (stereo not given)
inactive: ACHN > 100 µM | DU-145 > 100 µM | HOP-92 29.6 µM | HT-29 98.6 µM | K562 50 µM | KM12 47.4 µM | MDA-N 47.6 µM | Malme-3M 68.1 µM | NCI-H226 17.7 µM | NCI-H23 > 100 µM | OVCAR-8 > 100 µM | RXF 393 > 100 µM | SF-539 14.1 µM | SK-MEL-28 > 100 µM | SK-OV-3 61.9 µM | SW-620 53.2 µM | U-251 39.4 µM | UACC-62 44.1 µM

CC(=O)OC1COC(n2nc(N)nc2C)C(OC(C)=O)C1OC(C)=O (stereo not given)
inactive: ACHN > 100 µM | DU-145 > 100 µM | HOP-92 > 100 µM | HT-29 > 100 µM | K562 > 100 µM | KM12 > 100 µM | MDA-N > 100 µM | Malme-3M > 100 µM | NCI-H226 > 100 µM | NCI-H23 > 100 µM | OVCAR-8 > 100 µM | RXF 393 > 100 µM | SF-295 > 100 µM | SK-MEL-28 > 100 µM | SK-OV-3 > 100 µM | SW-620 > 100 µM | TK-10 > 100 µM | U-251 > 100 µM | UACC-62 > 100 µM

CC1(C)C=C(/C=N/Nc2ccccc2)C(C#N)=C(O)C1(C#N)C#N
inactive: ACHN > 100 µM | DU-145 > 100 µM | HOP-92 28.5 µM | HT-29 93.8 µM | K562 56.5 µM | KM12 > 100 µM | MDA-N > 100 µM | Malme-3M > 100 µM | NCI-H226 > 100 µM | NCI-H23 > 100 µM | OVCAR-8 > 100 µM | RXF 393 > 100 µM | SF-295 90.4 µM | SF-539 > 100 µM | SK-MEL-28 > 100 µM | SK-OV-3 > 100 µM | SW-620 > 100 µM | TK-10 > 100 µM | UACC-62 > 100 µM

C(CCCCc1nnc(N2CCOCC2)o1)CCCc1nnc(N2CCOCC2)o1
inactive: ACHN > 100 µM | DU-145 > 100 µM | HOP-92 > 100 µM | HT-29 > 100 µM | K562 > 100 µM | KM12 > 100 µM | MDA-N > 100 µM | NCI-H226 > 100 µM | NCI-H23 > 100 µM | OVCAR-8 > 100 µM | RXF 393 > 100 µM | SF-295 > 100 µM | SF-539 > 100 µM | SK-MEL-28 > 100 µM | SK-OV-3 > 100 µM | SW-620 > 100 µM | TK-10 > 100 µM | U-251 > 100 µM

COc1ccc2c(c1)/C(=C(\C(Cl)=C(Cl)Cl)[N+](=O)[O-])N2
inactive: ACHN > 100 µM | DU-145 > 100 µM | HOP-92 > 100 µM | HT-29 > 100 µM | K562 39 µM | KM12 > 100 µM | MDA-N 83.2 µM | Malme-3M 88.9 µM | NCI-H226 22.3 µM | NCI-H23 87.7 µM | OVCAR-8 92.5 µM | RXF 393 39.5 µM | SF-295 62.4 µM | SK-MEL-28 > 100 µM | SK-OV-3 > 100 µM | SW-620 73.8 µM | TK-10 > 100 µM | U-251 91.2 µM | UACC-62 > 100 µM

c1csc(-c2ccsc2-c2cccs2)c1
inactive: ACHN > 100 µM | DU-145 > 100 µM | HOP-92 > 100 µM | HT-29 > 100 µM | KM12 47.6 µM | MDA-N 35.8 µM | NCI-H226 46.8 µM | NCI-H23 13.3 µM | OVCAR-8 > 100 µM | RXF 393 44.9 µM | SF-295 > 100 µM | SF-539 > 100 µM | SK-OV-3 > 100 µM | SW-620 80.4 µM | TK-10 > 100 µM | U-251 > 100 µM | UACC-62 > 100 µM

C[C@@H](Oc1ccc(Oc2cnc3ccc(Cl)cc3n2)cc1)C(=O)O [R(+)XK469]
inactive: ACHN 87.9 µM | DU-145 > 100 µM | HOP-92 > 100 µM | HT-29 > 100 µM | KM12 76.6 µM | MDA-N > 100 µM | Malme-3M > 100 µM | NCI-H23 > 100 µM | OVCAR-8 > 100 µM | RXF 393 > 100 µM | SF-295 > 100 µM | SF-539 > 100 µM | SK-MEL-28 > 100 µM | SK-OV-3 > 100 µM | SW-620 85.3 µM | TK-10 > 100 µM | U-251 > 100 µM | UACC-62 66.7 µM
